From patent publication US6667387B1, “HCV core peptides” (priority 1992, dated 2003)
Ends that are not written are not given here.

Tests used:
Type in all cases: binding, human
[1] = test system: antibodies in antisera from HIV-1 infected persons; assay: ELISA with HIV-1 antibody-positive sera (biotinylated peptides on streptavidin- or avidin-coated plates, unbiotinylated peptides coated directly); settings: for optical density (450 nm): Table 2; for number borderline / number negative / number positive / percent borderline / percent negative / percent positive: Table 16
Experimental: (§1) Where peptides were to be coated directly, stock solutions of the peptides were diluted in sodium carbonate buffer, pH 9.6 and used to coat polystyrene microtiter plates at a peptide concentration of 2 to 5 micrograms per milliliter for 1 hour at 37° C.
(§2) In cases where biotinylated peptides were to be evaluated, plates were first coated with streptavidin in sodium carbonate buffer, pH 9.6 at a concentration of 3 micrograms per milliliter for 1 hour at 37° C. The plates were then washed to remove excess, unbound protein. A working solution of the biotinylated peptide at 1 microgram per milliliter in sodium carbonate buffer was then added to the wells of the microtiter plate and incubated for 1 hours at 37° C.
(§3) Once the plates had been coated with antigen, any remaining free binding sites on the plastic were blocked with casein. After washing, a dilution of the appropriate antisera, usually 1:100, was added to the wells of the plates and incubated for 1 hour at 37° C.
(§4) After washing to remove unbound material, specific antibody binding was detected by incubating the plates with goat anti-human immunoglobulin antibodies conjugated to the enzyme horseradish peroxidase. Following removal of unbound conjugate by washing, a solution containing H2O2 and 3,3′,5,5′-tetramethylbenzidine was added.
(§5) Reactions were stopped after a suitable interval by addition of sulfuric acid. […] Absorbance measurements were made at a wavelength of 450 nanometers and all data are expressed as an optical density value at this wavelength.
Experiments were performed to evaluate antibody recognition of short, 10 amino acid-long, N-acetylated peptides corresponding to other contained within the transmembrane proteins of HIV-1 and HIV-2. […] The peptides used for the comparison were as follows:
Antibody binding to these peptides was compared to antibody binding to the unibiotinylated peptides which were coated directly onto microtiter plates.
In order to evaluate antibody recognition of these two peptides, the peptides were bound individually to streptavidin-coated microtiter plates and tested using a panel of antisera from HIV-1 seropositive donors.
(§6) To determine how well biotinylated peptides would function in a mixture when bound to streptavidin- or avidin-coated plates, two mixtures were made of the N-terminally biotinylated versions of the HIV-1 peptides TM-HIV-1 (hereabove referred to as 1a.1) and V3-nm (hereabove referred to as 1b.4), the HIV-2 peptide TM-HIV-2 (hereabove referred to as 2a), and the hepatitis C virus peptides II, IX, and XVIII. Mixture A contained each of the six biotinylated peptides at a concentration of 1 microgram per milliliter (6 micrograms per milliliter peptide, total) while in mixture B, each peptide was present at a concentration of 0.1 microgram per milliliter (0.6 microgram per milliliter peptide, total). The individual peptides were coated at a concentration of 1 microgram per milliliter. For purposes of comparison, mixtures A and B were also coated directly onto the wells of a microtiter plate. Samples from HIV-1, HIV-2, and HCV-seropositive donors were tested and compared to sera from seronegative blood donors. A cut-off absorbance value of 0.250 was used to determine whether a reaction was positive or negative. Absorbance values equal or greater than 0.250 were considered positive while absorbance values below this value were considered negative.
A spacer consisting of two glycine residues was added to the amino terminus.

[2] = ELISA with seronegative / negative control sera (specificity)
Experimental: as §1, §2, §3, §4, §5
(§7) Unbiotinylated HCV peptide I was coated directly onto the wells of a polystyrene ELISA plate at a concentration of 3 micrograms per milliliter in sodium carbonate buffer, pH 9.6. Biotinylated HCV peptide I was bound to streptavidin-coated wells using a stock solution containing the peptide at a concentration of 1 microgram per milliliter. The resulting plates were then incubated in parallel with a panel of sera from HCV-seropositive donors. […] Two of the sera (8326 and 8244) recognize the biotinylated version of this peptide far better than the unbiotinylated version. The specificity of the antibody reaction is also reflected by the low optical density values obtained for 5 serum samples from uninfected donors (F88, F89, F76, F136, and F6).
as §6

[3] = test system: antibodies in antisera from HIV-2 infected persons; assay: ELISA with HIV-2 antibody-positive sera (biotinylated peptides on streptavidin- or avidin-coated plates, unbiotinylated peptides coated directly); settings: Table 17; HIV-2 positive sera, 21 tested
Experimental: as §1, §2, §3, §4, §5
The biotinylated peptides were loaded onto microtiter plates which had been coated with streptavidin. Antibody binding to these peptides was compared to antibody binding to the unibiotinylated peptides which were coated directly onto microtiter plates. It is evident that the biotinylated peptides from the HIV-1 or HIV-2 transmembrane proteins bound to streptavidin are recognized very well by antisera from HIV-1 or HIV-2 infected persons respectively. This is in contrast to the unbiotinylated versions of these peptides coated directly onto the polystyrene plates.
as §6
Two glycine residues were added at the N-terminus of each peptide to serve as a spacer and a biotin was coupled to the α-amino group of the resulting N-terminal glycine. The peptides were bound to streptavidin and coated in the wells of microwell plates. HIV-2 antibody-positive sera were used to evaluate these two peptides in an ELISA.

[4] = test system: antibodies in sera from HCV-seropositive donors; assay: ELISA with HCV antibody-positive sera (biotinylated peptides on streptavidin- or avidin-coated plates, unbiotinylated peptides coated directly); settings: for optical density (450 nm): 20-fold dilution; for PEPTIDE ELISA (O.D.): Table 12, biotinylated 20-mers
Experimental: as §1, §2, §3, §4, §5
The unbiotinylated peptides were adsorbed onto the wells of polystyrene microtiter plates at a concentration of 3 micrograms per milliliter.
The biotinylated peptides were bound at a concentration of 1 microgram per milliliter to streptavidin-coated microtiter plates. Sera known to contain antibodies to these peptides were used for the evaluation and were tested at a 20-fold dilution.
To investigate further the enhanced antibody recognition of biotinylated HCV peptides bound to streptavidin or avidin as compared to direct adsorption on plastic, the influence of peptide coating concentration was investigated. Three peptides (HCV peptides II, XI, and XVI) were coated in concentrations ranging from 10 nanograms per milliliter to 3 micrograms per milliliter in a volume of 200 microliters per microtiter plate well. For direct coating, the unbiotinylated versions of these peptides were used. The biotinylated versions of these peptides were used to coat wells to which streptavidin had previously been adsorbed. Sera known to contain antibodies to these peptides were used at a dilution of 1 to 100 to evaluate the magnitude of antibody binding.
as §7
To determine how well biotinylated peptides would function in a mixture when bound to streptavidin- or avidin-coated plates, two mixtures were made of the N-terminally biotinylated versions of the HIV-1 peptides TM-HIV-1 (hereabove referred to as 1a.1) and V3-nm (hereabove referred to as 1b.4), the HIV-2 peptide TM-HIV-2 (hereabove referred to as 2a), and the hepatitis C virus peptides II, IX, and XVIII. […]

## Ac-Tyr-Asn-Lys-Arg-Lys-Arg-Ile-His-Ile-Gly-Pro-Gly-Arg-Ala-Phe-Tyr-Thr-Thr-Lys-Asn-Ile-Ile-Gly-NH2 (Ac-YNKRKRIHIGPGRAFYTTKNIIG-NH2) [Peptide V3-mn]
[1]; sample 266
  optical density (450 nm): 0.951
[1]; sample 3990
  optical density (450 nm): 1.442
[1]; sample 4436
  optical density (450 nm): 0.388
[1]; sample 4438
  optical density (450 nm): 0.736
[1]; sample DV
  optical density (450 nm): 1.314
[1]; sample MM
  optical density (450 nm): 0.791
[1]; sample OOST 4
  optical density (450 nm): 1.106
[1]; sample OOST 6
  optical density (450 nm): 1.025
[1]; sample OOST 8
  optical density (450 nm): 1 389
[1]; sample PL
  optical density (450 nm): 0.531
[1]; sample VE
  optical density (450 nm): 1.717
[1]; sample YS
  optical density (450 nm): 1.442
[2]; Table 2, negative control
  optical density (450 nm): 0.063

## Asn Lys Thr Val Leu Pro Val Thr Ile Met Ser Gly Leu Val Phe His Ser Gln Pro Ile Asn Asp (NKTVLPVTIMSGLVFHSQPIND; printed: Asn Lys Thr Val Leu Pro Val Thr Ile Met Ser Gly Leu Val Phe His Ser Gln Pro Ile Asn Asp) [Peptide V2-239, HIV-2/SIV mm 239 V3; two glycine residues at the N-terminus and biotin]
[3]
  number borderline: 2
  number negative: 0
  number positive: 19
  percent borderline: 9.5%
  percent negative: 0%
  percent positive: 90.5%

## Asn Lys Thr Val Val Pro Ile Thr Leu Met Ser Gly Leu Val Phe His Ser Gln Pro Ile Asn Lys (NKTVVPITLMSGLVFHSQPINK; printed: Asn Lys Thr Val Val Pro Ile Thr Leu Met Ser Gly Leu Val Phe His Ser Gln Pro Ile Asn Lys) [Peptide V3-GB12, HIV-2 V3; two glycine residues at the N-terminus and biotin]
[3]
  number borderline: 0
  number negative: 0
  number positive: 21
  percent borderline: 0%
  percent negative: 0%
  percent positive: 100%

## NNTRRGIHMGWGRTFYATGEIIG [Peptide V3-368, two glycine residues at the amino terminus, N-terminal glycine biotinylated]
[1]; African sera, 45 tested
  number borderline: 9
  number negative: 31
  number positive: 5
  percent borderline: 20%
  percent negative: 69%
  percent positive: 11%
[1]; Brazilian sera, 36 tested
  number borderline: 15
  number negative: 5
  number positive: 16
  percent borderline: 41.7%
  percent negative: 13.9%
  percent positive: 44.4%
[1]; European sera, 36 tested
  number borderline: 20
  number negative: 12
  number positive: 4
  percent borderline: 56%
  percent negative: 33%
  percent positive: 11%

## Ser-Gln-His-Leu-Pro-Tyr-Ile-Glu-Gln-Gly-Met-Met-Leu-Ala-Glu-Gln-Phe-Lys-Gln-Lys [Biotinylated peptide XI] (SQHLPYIEQGMMLAEQFKQK; also: biotinylated) [probably the unbiotinylated peptide XI, acetylated at the amino terminus, coated directly]
[4]; Table 4A, serum 2
  optical density (450 nm): 0.090
[4]; Table 4A, serum 3
  optical density (450 nm): 0.443
[4]; Table 4A, serum 4
  optical density (450 nm): 0.473
[4]; Table 4A, serum 6
  optical density (450 nm): 0.053
[4]; Table 4A, serum 8
  optical density (450 nm): 1.275
[4]; Table 4A, serum 10
  optical density (450 nm): 0.764
[4]; Table 4A, serum 11
  optical density (450 nm): 0.569
[4]; Table 4A, serum 23
  optical density (450 nm): 0.775
[4]; Table 4A, serum 31
  optical density (450 nm): 0.497
[4]; Table 4A, serum 33
  optical density (450 nm): 0.832
[4]; Table 4A, serum 49
  optical density (450 nm): 0.515
[4]; Table 4A, serum 77
  optical density (450 nm): 0.093
[2]; Table 4A, negative serum
  optical density (450 nm): 0.053

## TRKTSERSQPRGRRQPIPKV [listing 1 of 2 here]
[4]; Table 4E, serum 8272
  optical density (450 nm): 0.589
[4]; Table 4E, serum 8273
  optical density (450 nm): 0.294
[4]; Table 4E, serum 8274
  optical density (450 nm): 1.820
[4]; Table 4E, serum 8275
  optical density (450 nm): 1.728
[4]; Table 4E, serum 8276
  optical density (450 nm): 2.194
[4]; Table 4E, serum 8277
  optical density (450 nm): 0.770
[4]; Table 4E, serum 8278
  optical density (450 nm): 1.391
[4]; Table 4E, serum 8284
  optical density (450 nm): 0.040
[2]; Table 4E, negative serum
  optical density (450 nm): 0.047

## TRKTSERSQPRGRRQPIPKV [listing 2 of 2 here]
[4]; Table 4E, serum 8272
  optical density (450 nm): 1.220
[4]; Table 4E, serum 8273
  optical density (450 nm): 1.026
[4]; Table 4E, serum 8274
  optical density (450 nm): 2.662
[4]; Table 4E, serum 8275
  optical density (450 nm): 1.724
[4]; Table 4E, serum 8276
  optical density (450 nm): 2.616
[4]; Table 4E, serum 8277
  optical density (450 nm): 1.796
[4]; Table 4E, serum 8278
  optical density (450 nm): 1.746
[4]; Table 4E, serum 8284
  optical density (450 nm): 0.757
[4]; serum 0843
  PEPTIDE ELISA (O.D.): 1.378
[4]; serum 8240
  PEPTIDE ELISA (O.D.): 2.021
[4]; serum 8241
  PEPTIDE ELISA (O.D.): 0.274
[4]; serum 8242
  PEPTIDE ELISA (O.D.): 2.315
[4]; serum 8332
  PEPTIDE ELISA (O.D.): 1.455
[4]; serum 8339
  PEPTIDE ELISA (O.D.): 2.598
[4]; serum 8350
  PEPTIDE ELISA (O.D.): 0.685
[4]; serum 8377
  PEPTIDE ELISA (O.D.): 0.076
[4]; serum 8378
  PEPTIDE ELISA (O.D.): 1.228
[4]; serum 8388
  PEPTIDE ELISA (O.D.): 2.162
[2]; Table 4E, negative serum
  optical density (450 nm): 0.070
